Here are results for 53 compounds from US11472808B2, “Substituted pyrrolo[1,2-c]pyrimidines as hepatitis B antiviral agents” (Enanta Pharmaceuticals, Inc., priority 2019, dated 2022).

This experiment relates to HBV. Kind of experiment: HepAD38 anti-HBV assay: reduction of viral product accumulation (virion DNA qPCR, HBsAg/HBeAg ELISA). In kind it is cell-based. To be noted: Hepatitis B virus, 120 h; HepAD38 cells; concentration reducing viral product accumulation by 50% relative to no drug controls; harvest five days after compound addition; read-out: HepAD38 EC50. The method, boiled down:
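Tetracycline-free HepAD38 cells treated 5 days with compound (1:200 DMSO dilution), or 8 days with media and compound refreshed on d2 and d5. Virion DNA quantified by qPCR; HBsAg or HBeAg by ELISA. EC50 is the concentration reducing viral product accumulation 50% versus no-drug controls.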

pEC50: −log10 of the molar value.

As to `O=C(O)CC1CCN(C(=O)CC2CCN(CCS(=O)(=O)N[C@H]3CC4=C(c5ccn(C(F)F)n5)[C@H](c5ccc(F)cc5Cl)N=C(c5nccs5)N4C3)CC2)CC1` [Example 64], the pEC50 is less than 6.40.

Take `CN(C)CCS(=O)(=O)N[C@H]1CC2=C(c3ccn(C(F)F)n3)[C@H](c3ccc(F)cc3Cl)N=C(c3nccs3)N2C1` [Example 53]: the pEC50 is greater than 7.00.

For `COCCOC[C@]1(O)CC2=C(c3ccn(C(F)F)n3)[C@H](c3ccc(F)cc3Cl)N=C(c3nccs3)N2C1` [Example 113], the pEC50 was less than 6.40.

As to `O[C@]1(CN2CCOCC2)CC2=C(c3ccn(C(F)F)n3)[C@H](c3ccc(F)cc3Cl)N=C(c3nccs3)N2C1` [Example 138], the negative logarithm of the EC50 (pEC50) was less than 6.40.

Consider `O=C(O)Cc1ccccc1S(=O)(=O)N[C@H]1CC2=C(c3ccn(C(F)F)n3)[C@H](c3ccc(F)cc3Cl)N=C(c3nccs3)N2C1` [Example 32], for which the pEC50 is 6.40 to 7.00.

In the case of `COC(=O)CCCS(=O)(=O)N[C@H]1CC2=C(c3ccn(C(F)F)n3)[C@H](c3ccc(F)cc3Cl)N=C(c3nccs3)N2C1` [Example 9], the negative logarithm of the EC50 (pEC50) is greater than 7.00.

`O=C(O)c1cccc(S(=O)(=O)NC[C@@]2(O)CC3=C(c4ccn(C(F)F)n4)[C@H](c4ccc(F)cc4Cl)N=C(c4nccs4)N3C2)c1` [Example 133]: the pEC50 was less than 6.40.

As to `OCC[C@@]1(F)CC2=C(c3ccn(C(F)F)n3)[C@H](c3ccc(F)cc3Cl)N=C(c3nccs3)N2C1` [Example 168], the pEC50 was greater than 7.00.

As for `O=C(N[C@H]1CC2=C(c3ccn(C(F)F)n3)[C@H](c3ccc(F)cc3Cl)N=C(c3nccs3)N2C1)N1CCC(O)CC1` [Example 208], the pEC50 was greater than 7.00.

In the case of `CS(=O)(=O)N1CCN(C(=O)N[C@H]2CC3=C(c4ccn(C(F)F)n4)[C@H](c4ccc(F)cc4Cl)N=C(c4nccs4)N3C2)CC1` [Example 222], the negative logarithm of the EC50 (pEC50) was 6.40 to 7.00.

As to `O=C(O)CS(=O)(=O)N[C@H]1CC2=C(c3ccn(C(F)F)n3)[C@H](c3ccc(F)cc3Cl)N=C(c3nccs3)N2C1` [Example 18], the pEC50 was less than 6.40.

With `CC(C)(C)OC(=O)Nc1cccc(S(=O)(=O)N[C@H]2CC3=C(c4ccn(C(F)F)n4)[C@H](c4ccc(F)cc4Cl)N=C(c4nccs4)N3C2)n1` [Example 382], the pEC50 was 6.40 to 7.00.

Turning to `O=S(=O)(N[C@H]1CC2=C(c3ccn(C(F)F)n3)[C@H](c3ccc(F)cc3Cl)N=C(c3nccs3)N2C1)C1CC(OCc2ccccc2)C1` (some centres unmarked) [Example 296], the negative-log EC50 (pEC50) was greater than 7.00.

Regarding `O=S(=O)(N[C@H]1CC2=C(c3ccn(C(F)F)n3)[C@H](c3ccc(F)cc3Cl)N=C(c3nccs3)N2C1)c1cc(F)c(F)c(F)c1` [Example 412], the pEC50 is greater than 7.00.

`O=C(O)c1ccccc1S(=O)(=O)N[C@H]1CC2=C(c3ccn(C(F)F)n3)[C@H](c3ccc(F)cc3Cl)N=C(c3nccs3)N2C1` [Example 7]: the pEC50 is less than 6.40.

With `O=C(O)c1cccc(S(=O)(=O)NC[C@]2(O)CC3=C(c4ccn(C(F)F)n4)[C@H](c4ccc(F)cc4Cl)N=C(c4nccs4)N3C2)c1` [Example 132], the pEC50 was less than 6.40.

In the case of `COC[C@@]1(O)CC2=C(c3ccn(C(F)F)n3)[C@H](c3ccc(F)cc3Cl)N=C(c3nccs3)N2C1` [Example 106], the negative logarithm of the EC50 (pEC50) was less than 6.40.

Turning to `O=S(=O)(NCc1ncc[nH]1)N[C@H]1CC2=C(c3ccn(C(F)F)n3)[C@H](c3ccc(F)cc3Cl)N=C(c3nccs3)N2C1` [Example 314], the negative logarithm of the EC50 (pEC50) was 6.40 to 7.00.

Turning to `O=C(O)CCCS(=O)(=O)N[C@H]1CC2=C(c3ccn(C(F)F)n3)[C@H](c3ccc(F)cc3Cl)N=C(c3nccs3)N2C1` [Example 11], the negative-log EC50 (pEC50) is greater than 7.00.

For `COC(=O)c1ccc(S(=O)(=O)NCC2(F)CC3=C(c4ccn(C(F)F)n4)[C@H](c4ccc(F)cc4Cl)N=C(c4nccs4)N3C2)cc1` (some centres unmarked) [Example 191], the negative logarithm of the EC50 (pEC50) was less than 6.40.

Consider `O=S(=O)(N[C@H]1CC2=C(c3ccn(C(F)F)n3)[C@H](c3ccc(F)cc3Cl)N=C(c3nccs3)N2C1)c1c(Cl)cccc1Cl` [Example 402], for which the pEC50 is 6.40 to 7.00.

As to `COC(=O)CS(=O)(=O)N[C@H]1CC2=C(c3ccn(C(F)F)n3)[C@H](c3ccc(F)cc3Cl)N=C(c3nccs3)N2C1` [Example 12], the pEC50 is 6.40 to 7.00.

`COC(=O)CC1CCN(C(=O)CC2CCN(CCS(=O)(=O)N[C@H]3CC4=C(c5ccn(C(F)F)n5)[C@H](c5ccc(F)cc5Cl)N=C(c5nccs5)N4C3)CC2)CC1` [Example 62]: the pEC50 was greater than 7.00.

For the compound `C=CCNC[C@]1(N)CC2=C(c3ccn(C(F)F)n3)[C@H](c3ccc(F)cc3Cl)N=C(c3nccs3)N2C1` [Example 147], the pEC50 is less than 6.40.

On to `O[C@@]1(CCl)CC2=C(c3ccn(C(F)F)n3)[C@H](c3ccc(F)cc3Cl)N=C(c3nccs3)N2C1` [Example 124], for which the pEC50 was greater than 7.00.

On to `O=C(N[C@H]1CC2=C(c3ccn(C(F)F)n3)[C@H](c3ccc(F)cc3Cl)N=C(c3nccs3)N2C1)N1CCC(O)(CO)CC1` [Example 241], for which the negative logarithm of the EC50 (pEC50) is 6.40 to 7.00.

`O=S(=O)(N[C@H]1CC2=C(c3ccn(C(F)F)n3)[C@H](c3ccc(F)cc3Cl)N=C(c3nccs3)N2C1)[C@H]1C[C@@H]1c1ccccn1` [Example 390]: the pEC50 was 6.40 to 7.00.

Regarding `COC(=O)c1ccccc1CS(=O)(=O)N[C@H]1CC2=C(c3ccn(C(F)F)n3)[C@H](c3ccc(F)cc3Cl)N=C(c3nccs3)N2C1` [Example 22], the negative logarithm of the EC50 (pEC50) is 6.40 to 7.00.

As to `O=C(N[C@H]1CC2=C(c3ccn(C(F)F)n3)[C@H](c3ccc(F)cc3Cl)N=C(c3nccs3)N2C1)C(=O)c1ccccc1` [Example 419], the pEC50 was 6.40 to 7.00.

As to `O=S(=O)(N[C@H]1CC2=C(c3ccn(C(F)F)n3)[C@H](c3ccc(F)cc3Cl)N=C(c3nccs3)N2C1)c1cccc(Br)n1` [Example 366], the pEC50 is greater than 7.00.

`C=CCN(C[C@@]1(O)CC2=C(c3ccn(C(F)F)n3)[C@H](c3ccc(F)cc3Cl)N=C(c3nccs3)N2C1)S(C)(=O)=O` [Example 128]: the negative-log EC50 (pEC50) is less than 6.40.

On to `C[C@H](NS(=O)(=O)N[C@H]1CC2=C(c3ccn(C(F)F)n3)[C@H](c3ccc(F)cc3Cl)N=C(c3nccs3)N2C1)c1ccccn1` [Example 160], for which the pEC50 was greater than 7.00.

With `O=C(N[C@H]1CC2=C(c3ccn(C(F)F)n3)[C@H](c3ccc(F)cc3Cl)N=C(c3nccs3)N2C1)c1cccnc1` [Example 227], the negative logarithm of the EC50 (pEC50) is greater than 7.00.

As to `COC(=O)C1CCCN(C(=O)C2CCCN(CCS(=O)(=O)N[C@H]3CC4=C(c5ccn(C(F)F)n5)[C@H](c5ccc(F)cc5Cl)N=C(c5nccs5)N4C3)C2)C1` (some centres unmarked) [Example 67], the pEC50 is less than 6.40.

On to `CC(C)[C@]1(O)CC[C@@H](c2ccc(S(=O)(=O)N[C@H]3CC4=C(c5ccn(C(F)F)n5)[C@H](c5ccc(F)cc5Cl)N=C(c5nccs5)N4C3)cc2)CC1` [Example 413], for which the pEC50 is greater than 7.00.

Take `CCOC(=O)CN([C@H]1CC2=C(c3ccn(C(F)F)n3)[C@H](c3ccc(F)cc3Cl)N=C(c3nccs3)N2C1)S(=O)(=O)c1cnn(CC(=O)OCC)c1` [Example 39]: the pEC50 was less than 6.40.

As for `CC(C)(NS(=O)(=O)N[C@H]1CC2=C(c3ccn(C(F)F)n3)[C@H](c3ccc(F)cc3Cl)N=C(c3nccs3)N2C1)c1ccccn1` [Example 318], the pEC50 is greater than 7.00.

Consider `O=C(N[C@H]1CC2=C(c3ccn(C(F)F)n3)[C@H](c3ccc(F)cc3Cl)N=C(c3nccs3)N2C1)c1cnccn1` [Example 233], for which the pEC50 was greater than 7.00.

With `O[C@]1(CCl)CC2=C(c3ccn(C(F)F)n3)[C@H](c3ccc(F)cc3Cl)N=C(c3nccs3)N2C1` [Example 125], the negative logarithm of the EC50 (pEC50) was greater than 7.00.

Take `C#CCNC[C@]1(O)CC2=C(c3ccn(C(F)F)n3)[C@H](c3ccc(F)cc3Cl)N=C(c3nccs3)N2C1` [Example 115]: the negative logarithm of the EC50 (pEC50) was less than 6.40.

Take `O=C(O)C1CCN(CCS(=O)(=O)N[C@H]2CC3=C(c4ccn(C(F)F)n4)[C@H](c4ccc(F)cc4Cl)N=C(c4nccs4)N3C2)CC1` [Example 59]: the negative-log EC50 (pEC50) is 6.40 to 7.00.

For `C=CCOC[C@]1(O)CC2=C(c3ccn(C(F)F)n3)[C@H](c3ccc(F)cc3Cl)N=C(c3nccs3)N2C1` [Example 108], the pEC50 was 6.40 to 7.00.

In the case of `O=C(O)c1ccccc1CS(=O)(=O)N[C@H]1CC2=C(c3ccn(C(F)F)n3)[C@H](c3ccc(F)cc3Cl)N=C(c3nccs3)N2C1` [Example 23], the pEC50 was 6.40 to 7.00.

`C=CC1(F)CC2=C(c3ccn(C(F)F)n3)[C@H](c3ccc(F)cc3Cl)N=C(c3nccs3)N2C1` (some centres unmarked) [Example 171]: the pEC50 was 6.40 to 7.00.

With `COC(=O)c1ccc(C#CCN2CCN([C@H]3CC4=C(c5ccn(C(F)F)n5)[C@H](c5ccc(F)cc5Cl)N=C(c5nccs5)N4C3)C2=O)cc1` [Example 42], the pEC50 was less than 6.40.

Consider `CC[C@@H](NS(=O)(=O)N[C@H]1CC2=C(c3ccn(C(F)F)n3)[C@H](c3ccc(F)cc3Cl)N=C(c3nccs3)N2C1)c1ccccn1` [Example 352], for which the pEC50 is 6.40 to 7.00.

`COC(=O)C1CCCN1CCS(=O)(=O)N[C@H]1CC2=C(c3ccn(C(F)F)n3)[C@H](c3ccc(F)cc3Cl)N=C(c3nccs3)N2C1` (some centres unmarked) [Example 60]: the pEC50 is less than 6.40.

Turning to `O=C(Nc1ccccc1)N1CCN([C@H]2CC3=C(c4ccn(C(F)F)n4)[C@H](c4ccc(F)cc4Cl)N=C(c4nccs4)N3C2)CC1` [Example 49], the negative-log EC50 (pEC50) is less than 6.40.

Take `O=S(=O)(CCCC(O)c1ccccn1)N[C@H]1CC2=C(c3ccn(C(F)F)n3)[C@H](c3ccc(F)cc3Cl)N=C(c3nccs3)N2C1` (some centres unmarked) [Example 297]: the pEC50 is 6.40 to 7.00.

For `O=C(O)CC(NS(=O)(=O)N[C@H]1CC2=C(c3ccn(C(F)F)n3)[C@H](c3ccc(F)cc3Cl)N=C(c3nccs3)N2C1)c1ccccn1` (some centres unmarked) [Example 356], the pEC50 was 6.40 to 7.00.

For the compound `O=C(N[C@H]1CC2=C(c3ccn(C(F)F)n3)[C@H](c3ccc(F)cc3Cl)N=C(c3nccs3)N2C1)C1CCC1` [Example 237], the negative-log EC50 (pEC50) is 6.40 to 7.00.

For the compound `O=C(N[C@H]1CC2=C(c3ccn(C(F)F)n3)[C@H](c3ccc(F)cc3Cl)N=C(c3nccs3)N2C1)C1CCCC1` [Example 238], the negative-log EC50 (pEC50) was 6.40 to 7.00.

Take `COC(=O)c1cc(S(=O)(=O)N[C@H]2CC3=C(c4ccn(C(F)F)n4)[C@H](c4ccc(F)cc4Cl)N=C(c4nccs4)N3C2)c(C)cc1F` [Example 26]: the pEC50 is less than 6.40.
